Reference: patent US20240016941A1, “COMBINATION THERAPY” (priority 2020, published 2024)
pKi: −log10 of the molar value. Entries after “also recorded” stand apart in the source; their conditions may differ.

What was measured:
F508del-CFTR cells = experiment: Forskolin-activated CFTR response in CF-mutant human bronchial epithelial cells (membrane potential dye); type: cell-based
Method: This example describes experiments showing that LasB impacted CFTR function in CF mutant cells can be mitigated by treatment with CFTR modulators and LasB inhibitors.
Wild Type human bronchial epithelial (HBE) cells and CF-mutant human bronchial epithelial cells (F508del-CFTR) are grown at 37° C. for 5 days and loaded onto 96-well plate cultures. The cells are loaded with blue membrane potential dye dissolved in chloride-free buffer. The plate is read in a fluorescence plate reader at 37° C. (excitation: 530 nm; emission; […]). CFTR is stimulated with forskolin.
A control signal defined as 100% transmission is obtained from WT human bronchial epithelial cells alone. A minor suppression of forskolin-activated CFTR response is expected for such WT cells in the presence of LasB.
Moderate suppression in the forskolin-activated CFTR response will be observed for CF-mutant cells. This moderate suppression will be reduced by addition of a CFTR modulator such as VX-809 (lumacaftor).
Substantial suppression in the forskolin-activated CFTR response is expected for CF-mutant cells in the presence of LasB, even following the addition of a CFTR modulator, due to the deleterious effect of LasB on expressed CFTR protein.

[1] = tested on: cells infected by tobramycin-resistance PA bacteria; settings: combination with CFTR modulators, tobramycin-resistant PA; cited from earlier work
[2] = tested on: PAO1 WT secretome (contains LasB); settings: WT-SEC treated cells; cited from earlier work
[3] = target: T1, purified LasB protein from P. aeruginosa (Pseudomonas aeruginosa, UniProt P14756); experiment: Fluorometric assay to determine Ki (purified LasB, Abz-Ala-Gly-Leu-Ala-p-Nitro-Benzyl-Amide substrate); type: biochemical
T1 construct: purchased Merck or Charles River Laboratories
In short: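 Purified P. aeruginosa LasB (10-140 ng/ml) with 250 μM Abz-Ala-Gly-Leu-Ala-p-nitrobenzylamide in Tris pH 7.4, 2.5 mM CaCl2, 0.01% Triton X100; fluorescence (340/415 nm) followed 30 min at 37 °C. IC50 from 2-fold series (0.0016-200 μM); Ki = IC50/(1+[S]/Km), Km 214 μM.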

[4] = target: T2, LasB elastase activity of dialysed supernatant from P. aeruginosa PAO1 (Pseudomonas aeruginosa, UniProt P14756); experiment: Elastin Congo-Red assay to determine % inhibition (dialysed PAO1 supernatant); type: biochemical; settings: read-out: Elastin hydrolysis % inhibition @ 25 μM inhibitor concentration
T2 construct: Culture supernatants are recovered by centrifugation and filtrated through a 0.22 μM filter; endogenous in cells; host or cells: P. aeruginosa strain PAO1, culture supernatant, filtered and dialysed
Method: Experiments were therefore conducted (1) to measure the potency of inhibition of compounds of the invention against purified Pseudomonas aeruginosa LasB enzyme and also experiments were conducted (2) to measure the ability of compounds of the invention to inhibit LasB-catalysed elastin degradation. The first assay uses a commercial fluorescent synthetic peptide and purified LasB enzyme. The LasB hydrolysis kinetics are measured allowing the determination of the IC50 and Ki of the inhibitors; the second is a more physiological assay using dialysed Pseudomonas aeruginosa supernatant as source of enzyme, plus its natural substrate Elastin. It is an “end point assay” that determines the percentage of LasB inhibition by each compound for one particular time point and inhibitor concentration. Technical details are described below:
The Elastin assay uses as source of enzyme dialysed supernatant from P. aeruginosa PAO1 and the Elastin Congo-Red as substrate. The natural LasB substrate, elastin, is complexed with the congo-red dye (Elastin Congo-Red, ECR). The elastolysis activity from the culture supernatant will degrade elastin and release the congo-red dye into the supernatant. This red dye release can be measured with a spectrophotometer.
Method: To determine LasB elastase activity and assess compound inhibition, an overnight culture of P. aeruginosa strain PAO1 is diluted in LB medium. After reaching an OD600nm of 0.6, this culture is diluted and incubated for additional 18-24 hours in a shaking incubator. Culture supernatants are recovered by centrifugation and filtrated through a […] filter. These supernatants are dialysed (filtration molecules <20 kDa) into a 50 mM Tris-HCl pH 7.4, 2.5 mM CaCl2 solution at 4° C. under agitation for 24 hours. Supernatant dialysed is then mixed volume/volume with the ECR suspension (20 mg/mL of ECR in 100 mM Tris-HCl pH 7.4 buffer supplemented with 1 mM CaCl2)) supplemented with Triton X100 (final concentration of 0.01%) in presence of DMSO (positive control) and/or different concentrations of compound (routinely 50 to 1.56 μM). As a negative control, the dialysed supernatant is replaced by Tris-HCl solution (50 mM Tris-HCl pH 7.4, 2.5 mM CaCl2). The mixed reaction is then incubated overnight in a 37° C. shaking incubator. The reaction supernatant is recovered by centrifugation and the release of congo-red is measured by its absorbance at 495 nm (OD495nm).
Percentage inhibition is determined using the following equation:
((OD495 nm value of positive control−OD495nm value of negative control)−(OD495nm value of treated supernatant−OD495nm value of negative control))/(OD495nm value of positive control−OD495nm value of negative control)×100.

purified LasB = purified LasB (Pseudomonas aeruginosa, UniProt P14756); experiment: Inhibition of LasB-mediated hydrolysis of pro-IL-1β to IL-1β (FRET peptide); type: biochemical
Method: Hydrolysis of this FRET peptide was continuously monitored using a Victor multimode plate reader (Perkin Elmer) with excitation 355 nm and emission at 450 nm in the presence of varying concentrations of compounds of the invention. Inhibitory constants (Ki) were determined for certain compounds of the invention (at least 2 independent replicates) using a competitive inhibitor model.

PA (PAO1) = experiment: Mouse model of Pseudomonas aeruginosa lung infection; type: in vivo; settings: mice infected with wild-type PAO1, i.v. 1 h and 2 h post infection, 10 and 30 mg/kg, 24 hours post infection
Method: Mice were dosed by intranasal inoculation of PA (PAO1), then sacrificed after 24 hours. The extent of infection in the lung was quantified by bacterial load (CFU determination, colony forming units) and the levels of proinflammatory IL-1β. Statistical analysis on both readouts were performed by ANOVA with a Dunnett post-test.
Compounds were administered intravenously in a two-dose regimen (1 hour and 2 hours post infection) at two different doses (10 and 30 mg/kg).

[5] = target: T3, LasB from Pseudomonas aeruginosa (Pseudomonas aeruginosa, UniProt P14756); experiment: Inhibition of LasB-mediated reduction of CFTR levels on airway cells (CFTR IP / Western blot); type: cell-based; settings: NHBE airway cells, 100 nM LasB, 1, 10 or 100 μM compound, 24 hrs
T3 construct: host or cells: Exogenous enzyme applied apically to NHBE cells
Method: These experiments measured the amount of CFTR protein expressed in airway cells under normal conditions and also exposed to 100 nM LasB. […] The effect of adding increasing concentrations of a LasB inhibitor (here the compound of Example 23) on this reduction of CFTR by LasB was then examined.
Normal Human Bronchial Epithelial (NHBE) airway cells were expanded in Pneumacult™ EX medium on plastic PureCol™ coated dishes. Cells were plated on Millicell inserts (200K/insert) and differentiated at air-liquid interface for 26 days in modified Lonza Medium. Prior to treatment, cells were washed in 1×DPBS buffer.
Treatments were 100 nM LasB from Pseudomonas aeruginosa and 0, 1, 10, or 100 μM Example 23 for 24 hrs. A stock solution of LasB (200 nM) was prepared in buffer containing 50 mM Tris HCL pH 7.4, 2.5 mM CaCl2 and 0.01% TritonX-100. A 20 mM stock solution of Example 23 was made in DMSO and sonicated for 10 minutes. The DMSO stock was diluted, 10 μL into 990 μL buffer, to give a 200 μM solution. […]
The cells were lysed with 1% NP-40 lysis buffer containing protease inhibitors (1 μg/ml leupeptin, 2 μg/ml aprotinin, […] pefabloc, 121 μg/ml benzamidine, 3.5 μg/ml E64) and stored at −80° C. until IP/WB analysis. […] Protein bands were visualized using a Sapphire Biomolecular Imager (Azure Biosystems) and quantitated with AzureSpot Analysis Software.

T1 sequence (P14756 198-498): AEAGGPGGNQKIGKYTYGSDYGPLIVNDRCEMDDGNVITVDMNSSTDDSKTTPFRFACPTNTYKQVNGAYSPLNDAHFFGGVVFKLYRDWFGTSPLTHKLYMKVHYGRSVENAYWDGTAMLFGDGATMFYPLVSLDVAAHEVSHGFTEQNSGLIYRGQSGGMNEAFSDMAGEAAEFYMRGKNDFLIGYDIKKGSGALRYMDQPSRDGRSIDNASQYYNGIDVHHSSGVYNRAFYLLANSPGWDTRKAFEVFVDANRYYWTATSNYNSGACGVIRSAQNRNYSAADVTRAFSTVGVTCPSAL
Sequence of purified LasB (P14756 198-498): as above
T3 sequence (P14756 198-498): as above
T2 sequence (P14756 198-498): as above

Compound	pKi [3]	inhibition at 25 µM [4]	pKi (purified LasB)	extent of infection in the lung (CFU levels) (PA (PAO1))	production and activation of IL-1β in the lung (PA (PAO1))	also measured
Cc1ccc(NC(=O)C2(c3ccc4c(c3)OC(F)(F)O4)CC2)nc1-c1cccc(C(=O)O)c1 [VX-809, lumacaftor, reference compound]						Maximum forskolin-activated response of CFTR channels compared to WT human bronchial epithelial cells (F508del-CFTR cells; F508del-CFTR cells + 10 μM VX-809): Minor suppression of CFTR; Maximum forskolin-activated response of CFTR channels compared to WT human bronchial epithelial cells (F508del-CFTR cells; F508del-CFTR cells + 10 μM VX-809 + 0.01 μM LasB): substantial suppression of CFTR
NC[C@H]1O[C@H](O[C@H]2[C@H](O)[C@@H](O[C@H]3O[C@H](CO)[C@@H](O)[C@H](N)[C@H]3O)[C@H](N)C[C@@H]2N)[C@H](N)C[C@@H]1O [tobramycin]						restoration of CFTR function [1]: incapable of restoring CFTR function
CC(C)C[C@H](NP(=O)(O)O[C@@H]1O[C@@H](C)[C@H](O)[C@@H](O)[C@H]1O)C(=O)N[C@@H](Cc1c[nH]c2ccccc12)C(=O)O [phosphoramidon]						downregulation of trappin-2 and IL-6 by WT secretome [2]: prevented
COc1cc2sc(CNC(=O)C3(CC(=O)[O-])Cc4cc(F)c(F)cc4C3)nc2cc1OCCC[N+](C)(CCO)CCO [Example 23, 2-[2-[[5-[3-[bis(2-hydroxyethyl)-methyl-ammonio]propoxy]-6-methoxy-1,3-benzothiazol-2-yl]methylcarbamoyl]-5,6-difluoro-indan-2-yl]acetate]	> 7.30	> 80%	6.30	reduced the extent of infection in the lung to the level of the LasB deleted mutant	inhibited the production and activation of IL-1β in mice infected by wild-type PA (PA01) at a similar level than the lasB deleted mutant	CFTR protein level in LasB-exposed cells [5]: ameliorated by increasing concentrations of Example 23; also recorded: counteract the reduction in CFTR expression caused by LasB in a dose-related manner
COc1cc2sc(CNC(=O)C3(CC(=O)[O-])Cc4ccccc4C3)nc2cc1OCCC[N+](C)(C)C [Example 53, 2-[2-[[6-methoxy-5-[3-(trimethylammonio)propoxy]-1,3-benzothiazol-2-yl]methylcarbamoyl]indan-2-yl]acetate]	> 7.30		6.15	reduced the extent of infection in the lung to the level of the LasB deleted mutant	inhibited the production and activation of IL-1β in mice infected by wild-type PA (PA01) at a similar level than the lasB deleted mutant	Maximum forskolin-activated response of CFTR channels compared to WT human bronchial epithelial cells (F508del-CFTR cells; F508del-CFTR cells + 10 μM VX-809 + 0.01 μM LasB + 10 μM Example 53): forskolin-activated CFTR response being substantially restored; also recorded: Minor suppression of CFTR
COc1cc2sc(CNC(=O)C3(CC(=O)[O-])Cc4ccccc4C3)nc2cc1OCCC[N+](C)(CCO)CCO [Example 22, 2-[2-[[5-[3-[bis(2-hydroxyethyl)-methyl-ammonio]propoxy]-6-methoxy-1,3-benzothiazol-2-yl]methylcarbamoyl]indan-2-yl]acetate]	> 7.30	60 to 80%	6.40			
